# Columns and labels:
# memapsin 2 = memapsin 2 (Homo sapiens, UniProt P56817); assay: Inhibition of memapsin 2 catalytic activity (Ki); type: biochemical; conditions: memapsin 2, pH 4, 37° C.; read-out: M2K
# Outline: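 Run at 37 °C and pH 4: compound and enzyme pre-incubated 20 min before FS-2 fluorogenic substrate started hydrolysis,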
# [1] = system: Aβ production in Chinese hamster ovary cells that over-express human APP695 with the London and Swedish mutations; assay: Cellular Aβ IC50 determination (Aβ40 sandwich ELISA); conditions: Cricetulus griseus, CHO, 24 h, read-out: Cell, Aβ40, CHO cells over-expressing human APP695 (London and Swedish mutations), 24 h
# memapsin 1 = target: T1, memapsin 1 (Homo sapiens, UniProt Q9Y5Z0); assay: Inhibition of memapsin 1 catalytic activity (Ki); type: biochemical; conditions: memapsin 1, pH 4.0, 37° C.; read-out: M1K
# T1 sequence (Q9Y5Z0 63-518): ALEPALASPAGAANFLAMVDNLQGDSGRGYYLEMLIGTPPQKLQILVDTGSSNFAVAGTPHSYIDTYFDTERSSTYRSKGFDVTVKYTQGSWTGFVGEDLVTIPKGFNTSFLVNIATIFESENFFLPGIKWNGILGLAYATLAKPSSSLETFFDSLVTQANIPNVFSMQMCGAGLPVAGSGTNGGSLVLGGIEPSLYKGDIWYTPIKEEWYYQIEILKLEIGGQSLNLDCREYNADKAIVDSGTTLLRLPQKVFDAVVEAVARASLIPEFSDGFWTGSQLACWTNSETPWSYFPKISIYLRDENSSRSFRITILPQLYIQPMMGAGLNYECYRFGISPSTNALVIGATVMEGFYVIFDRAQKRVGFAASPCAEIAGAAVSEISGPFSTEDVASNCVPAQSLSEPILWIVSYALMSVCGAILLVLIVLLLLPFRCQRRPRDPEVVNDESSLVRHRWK
# Method: A substrate peptide NH3-ELDLAVEFWHDR-CO2 (SEQ ID NO.:1) (used for inhibition assay of memapsin 2, memapsin 1, and cathepsin D) was dissolved at 2 mg/ml in DMSO and diluted 1:100 in 0.1 M sodium acetate, pH 4.0 just prior to assay. Inhibitor dissolved in DMSO was diluted into 0.1 M sodium acetate, pH 4.0 (1:100 dilution). A […] aliquot of the inhibitor solution in pH 4 buffer was combined with […] of 0.1 M sodium acetate containing 100-200 nM of memapsin 1, memapsin 2, or cathepsin D. Following a pre-incubation at 37° C., the proteolytic assay was initated by addition of […] of the substrate diluted into pH 4 buffer, and incubation continued at 37° C. Aliquots were removed at time intervals, and combined with an equal volume of MALDI-TOF matrix (α-hydroxycinnamic acid in acetone, 20 mg/ml) and immediately spotted in duplicate onto a stainless-steel MALDI sample plate. MALDI-TOF mass spectrometry was performed on a PE Biosystems Voyager DE instrument at the Molecular Biology Resource Center on campus. The instrument was operated at 25,000 accelerating volts in positive mode with a 150 ns delay. Ions with a mass-to-charge ratio (m/z) were detected in the range of 650-2000 atomic mass units. Data were analyzed by the Voyager Data Explorer module to obtain ion intensity data for mass species of substrates and corresponding products in a given mixture. Relative product formation was calculated as the ratio of signal intensity of the product to the sum of signal intensities of both product and the corresponding substrate. Relative product formed per unit time was obtained from non-linear regression analysis of the data representing the initial 15% formation of product using the model: 1−e^−kT, where k was the relative hydrolytic rate constant and T was time in seconds. Alternatively, relative hydrolytic rates were determined using a fluorogenic cleavage assay (Ermolieff, J. et al., Biochemistry, 39: 12450-12456 (2000)). Initial rates from either method were expressed relative to uninhibited controls and the inhibition constant Ki was determined by a non-linear fit to a tight-binding model of competitive inhibition (Bieth, J., Bayer-Symposium V: Proteinase Inhibitors, pp 463-469, Spinger-Varlag, Berlin (1994)). Results are shown in Table 1 above (M2K, CDK, and M1K columns represent, respectively, the K1 values obtained for memapsin 2, cathepsin D and memapsin 1).
# cathepsin D = cathepsin D (Homo sapiens, UniProt P07339); assay: Inhibition of cathepsin D catalytic activity (Ki); type: biochemical; conditions: pH 4.0, 37° C., read-out: CDK
# cathepsin D, sequence (P07339 65-412, species assumed): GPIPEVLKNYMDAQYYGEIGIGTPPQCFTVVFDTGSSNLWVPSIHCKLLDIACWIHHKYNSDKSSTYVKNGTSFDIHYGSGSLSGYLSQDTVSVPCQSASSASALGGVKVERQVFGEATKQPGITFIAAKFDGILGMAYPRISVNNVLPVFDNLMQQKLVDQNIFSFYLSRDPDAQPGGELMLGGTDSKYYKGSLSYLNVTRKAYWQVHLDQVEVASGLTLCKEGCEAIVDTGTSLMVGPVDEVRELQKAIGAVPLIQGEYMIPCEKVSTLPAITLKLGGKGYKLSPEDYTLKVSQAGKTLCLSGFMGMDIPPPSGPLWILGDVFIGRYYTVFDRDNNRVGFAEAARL
# memapsin 2, sequence (P56817 46-501): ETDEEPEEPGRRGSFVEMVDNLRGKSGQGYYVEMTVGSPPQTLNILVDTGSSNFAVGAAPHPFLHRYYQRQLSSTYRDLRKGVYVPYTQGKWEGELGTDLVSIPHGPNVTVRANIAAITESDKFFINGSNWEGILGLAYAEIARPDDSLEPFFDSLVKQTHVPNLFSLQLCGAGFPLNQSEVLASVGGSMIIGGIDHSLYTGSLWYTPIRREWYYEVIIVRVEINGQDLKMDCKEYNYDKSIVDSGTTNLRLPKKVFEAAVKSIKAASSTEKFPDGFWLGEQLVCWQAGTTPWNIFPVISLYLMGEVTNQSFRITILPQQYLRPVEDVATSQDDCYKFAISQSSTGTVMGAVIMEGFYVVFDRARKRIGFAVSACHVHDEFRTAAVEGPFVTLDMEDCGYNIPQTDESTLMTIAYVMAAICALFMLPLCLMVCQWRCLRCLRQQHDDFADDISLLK
Ki (memapsin 2) [nM],IC50 [1] [nM],Ki (memapsin 1) [nM],Ki (cathepsin D) [nM],Compound
> 501,> 5000,> 501,,CC(C)NC(=O)c1cccc(CNCC(O)C(Cc2ccccc2)NC(=O)c2cc(C(=O)NC(C)c3ccccc3)cc(N(C)S(C)(=O)=O)c2)c1 (centres unmarked) [N1-(3-hydroxy-4-(3-(isopropylcarbamoyl)benzylamino)-1-phenylbutan-2-yl)-5-(N-methylmethylsulfonamido)-N3-(1-phenylethyl)isophthalamide]
< 300,< 1000,301 to 500,< 300,Cc1cccc(CNCC(O)C(Cc2ccccc2)NC(=O)c2cc(C(=O)NC(C)c3ccccc3)cc(N(C)S(C)(=O)=O)c2)c1 (centres unmarked) [N1-(3-hydroxy-4-(3-methylbenzylamino)-1-phenylbutan-2-yl)-5-(N-methylmethylsulfonamido)-N3-(1-phenylethyl)isophthalamide]
< 300,,< 300,< 300,4- or 6-fluoro-N3-(3-hydroxy-4-(3-methoxybenzylamino)-1-phenylbutan-2-yl)-N1-methyl-N1-((4-methylthiazol-2-yl)methyl)isophthalamide
,1000 to 5000,> 501,> 501,"Cc1nc(CNCC(O)C(Cc2ccccc2)NC(=O)c2cc(C(=O)NC(C)c3ccccc3)cc(N(C)S(C)(=O)=O)c2)c(C)o1 (centres unmarked) [N1-(4-((2,5-dimethyloxazol-4-yl)methylamino)-3-hydroxy-1-phenylbutan-2-yl)-5-(N-methylmethylsulfonamido)-N3-(1-phenylethyl)isophthalamide]"
< 300,< 1000,< 300,< 300,CCC(NC(=O)c1cc(C(=O)NC(Cc2ccccc2)C(O)CNCc2cccc(OC)c2)cc(N(C)S(C)(=O)=O)c1)c1ccccc1 (centres unmarked) [N1-(3-hydroxy-4-(3-methoxybenzylamino)-1-phenylbutan-2-yl)-5-(N-methylmethylsulfonamido)-N3-(1-phenylpropyl)isophthalamide]
> 501,> 5000,> 501,< 300,COc1cccc(CNCC(O)C(Cc2ccccc2)NC(=O)c2cccc(C(=O)N(C)Cc3cc(C)no3)c2)c1 (centres unmarked) [N1-(3-hydroxy-4-(3-methoxybenzylamino)-1-phenylbutan-2-yl)-N3-methyl-N3-((3-methylisoxazol-5-yl)methyl)isophthalamide]
> 501,1000 to 5000,< 300,> 501,Cc1csc(CN(C)C(=O)c2cccc(C(=O)NC(Cc3ccccc3)C(O)CNC(C)c3ccccc3)c2)n1 (centres unmarked) [N1-(3-hydroxy-1-phenyl-4-(1-phenylethylamino)butan-2-yl)-N3-methyl-N3-((4-methylthiazol-2-yl)methyl)isophthalamide]
< 300,,> 501,< 300,COc1cccc(CNCC(O)C(Cc2ccccc2)NC(=O)c2cccc(C(=O)N(Cc3nc(C)cs3)C3CC3)c2)c1 (centres unmarked) [N1-cyclopropyl-N3-(3-hydroxy-4-(3-methoxybenzylamino)-1-phenylbutan-2-yl)-N1-((4-methylthiazol-2-yl)methyl)isophthalamide]
301 to 500,< 1000,< 300,< 300,CCN(c1cc(C(=O)NC(C)c2ccccc2)cc(C(=O)NC(Cc2ccccc2)C(O)CNCc2cccc(OC)c2)c1)S(C)(=O)=O (centres unmarked) [5-(N-ethylmethylsulfonamido)-N1-(3-hydroxy-4-(3-methoxybenzylamino)-1-phenylbutan-2-yl)-N3-(1-phenylethyl)isophthalamide]
< 300,< 1000,> 501,< 300,"CC(NC(=O)c1cc(C(=O)NC(Cc2ccccc2)C(O)CNCc2cc(F)cc(F)c2)cc(N(C)S(C)(=O)=O)c1)c1ccccc1 (centres unmarked) [N1-(4-(3,5-difluorobenzylamino)-3-hydroxy-1-phenylbutan-2-yl)-5-(N-methylmethylsulfonamido)-N3-(1-phenylethyl)isophthalamide]"
< 300,< 1000,> 501,< 300,Cc1csc(CN(C)C(=O)c2cccc(C(=O)NC(Cc3ccccc3)C(O)CNCc3cccc(C(F)(F)F)c3)c2)n1 (centres unmarked) [N1-(3-hydroxy-1-phenyl-4-(3-(trifluoromethyl)benzylamino)butan-2-yl)-N3-methyl-N3-((4-methylthiazol-2-yl)methyl)isophthalamide]
< 300,< 1000,< 300,< 300,Cc1csc(CN(C(=O)c2cccc(C(=O)NC(Cc3ccccc3)C(O)CNCc3cncc(C(C)C)c3)c2)C2CC2)n1 (centres unmarked) [N1-cyclopropyl-N3-(3-hydroxy-4-((5-isopropylpyridin-3-yl)methylamino)-1-phenylbutan-2-yl)-N1-((4-methylthiazol-2-yl)methyl)isophthalamide]
< 300,< 1000,301 to 500,< 300,COc1ccccc1CNCC(O)C(Cc1ccccc1)NC(=O)c1cc(C(=O)NC(C)c2ccccc2)cc(N(C)S(C)(=O)=O)c1 (centres unmarked) [N1-(3-hydroxy-4-(2-methoxybenzylamino)-1-phenylbutan-2-yl)-5-(N-methylmethylsulfonamido)-N3-(1-phenylethyl)isophthalamide]
301 to 500,,< 300,> 501,CC(NC(=O)c1cc(C(=O)NC(Cc2ccccc2)C(O)CNCc2cccc(COCc3ccccc3)c2)cc(N(C)S(C)(=O)=O)c1)c1ccccc1 (centres unmarked) [N1-(4-(3-(benzyloxymethyl)benzylamino)-3-hydroxy-1-phenylbutan-2-yl)-5-(N-methylmethylsulfonamido)-N3-(1-phenylethyl)isophthalamide]
,> 5000,> 501,,COCc1cccc(CNCC(O)C(Cc2ccccc2)NC(=O)c2cc(C(=O)NC(C)c3ccccc3)cc(N(C)S(C)(=O)=O)c2)c1 (centres unmarked) [N1-(3-hydroxy-4-(3-(methoxymethyl)benzylamino)-1-phenylbutan-2-yl)-5-(N-methylmethylsulfonamido)-N3-(1-phenylethyl)isophthalamide]
< 300,< 1000,> 501,,COc1cccc(CNCC(O)C(Cc2ccccc2)NC(=O)c2cc(C(=O)NC(C)c3cccc(OC)c3)cc(N(C)S(C)(=O)=O)c2)c1 (centres unmarked) [N1-(3-hydroxy-4-(3-methoxybenzylamino)-1-phenylbutan-2-yl)-N3-(1-(3-methoxyphenyl)ethyl)-5-(N-methylmethylsulfonamido)isophthalamide]
< 300,,301 to 500,< 300,COc1cncc(CNCC(O)C(Cc2ccccc2)NC(=O)c2cc(C(=O)NC(C)c3ccccc3)cc(N(C)S(C)(=O)=O)c2)c1 (centres unmarked) [N1-(3-hydroxy-4-((5-methoxypyridin-3-yl)methylamino)-1-phenylbutan-2-yl)-5-(N-methylmethylsulfonamido)-N3-(1-phenylethyl)isophthalamide]
,< 1000,< 300,< 300,COc1cccc(CNCC(O)C(Cc2ccccc2)NC(=O)c2cc(C(=O)NC(C)c3ccccc3)cc(N(C)S(C)(=O)=O)c2)c1 (centres unmarked) [N1-(3-hydroxy-4-(3-methoxybenzylamino)-1-phenylbutan-2-yl)-5-(N-methylmethylsulfonamido)-N3-(1-phenylethyl)isophthalamide]
> 501,,> 501,> 501,Cc1csc(CN(C)CC(O)C(Cc2ccccc2)NC(=O)c2cc(C(=O)NC(C)c3ccccc3)cc(N(C)S(C)(=O)=O)c2)n1 (centres unmarked) [N1-(3-hydroxy-4-(methyl((4-methylthiazol-2-yl)methyl)amino)-1-phenylbutan-2-yl)-5-(N-methylmethylsulfonamido)-N3-(1-phenylethyl)isophthalamide]
